The text below walks through data of patent US20060211725A1, “Use” (Astellas Pharma Inc., priority 2002, published 2006).

Structures are written as SMILES.

What all share (assay type): in vivo, rat
In assay [1] the test system is F344 kidney allograft in LEW recipient rats. Briefly: Kidney allograft survival, combination with tacrolimus (Example 2). The following applies: Tacrolimus 1 mg/kg PO, 0-90 day, alone. The procedure: The rats and kidney transplantation methods described in Example 1 were used. The compound (I) at dose of 3 mg/kg and tacrolimus at dose of 1 mg/kg, were administered orally to recipient rats daily for 90 days after transplantation. The isograft, untreated allograft, and allograft treated with tacrolimus 1 mg/kg for 90 days alone served as control groups.

The test system is the same in assay [2]. In words: Recipient kidney function, treatment with brief tacrolimus (Example 4). Conditions: brief dose of tacrolimus 1 mg/kg day 0-9 alone; allograft control week 7. The procedure: (§1) The rats and kidney transplantation methods described in Example 1 were used. Tacrolimus at dose of 1 mg/kg from day 0 to day 9 after transplantation, and the compound (I) at doses of 10 mg/kg and 15 mg/kg from day 28 today 60 after transplantation were administered orally to recipient rats. In this study LEW recipients were briefly treated with oral tacrolimus at 1 mg/kg/day for 10 days after transplantation to avoid acute rejection and slow chronic rejection that gradually destroys the F344 kidney graft, resulting in functional and histological changes similar to the chronic rejection in human. The isograft, untreated allograft and allograft treated with tacrolimus 1 mg/kg for 10 days alone served as control groups. Blood and urine samples were collected once a week from recipients with kidney grafts described in Example 1 for measuring their plasma creatinine and proteinuria. Plasma creatinine was tested by Sigma Creatinine Kit and proteinuria by Bio-Rad Protein assay.

Assay [3] has the same test system. In words: Kidney allograft survival, treatment with brief tacrolimus (Example 4). Conditions: Tacrolimus 1 mg/kg PO, 0-9 day, alone. The procedure: as §1

As for `C=CC[C@@H]1/C=C(\C)C[C@H](C)C[C@H](OC)[C@H]2O[C@@](O)(C(=O)C(=O)N3CCCC[C@H]3C(=O)O[C@H](/C(C)=C/[C@@H]3CC[C@@H](O)[C@H](OC)C3)[C@H](C)[C@@H](O)CC1=O)[C@H](C)C[C@@H]2OC` [Tacrolimus, tacrolimus], the Survival day in assay [1] (n=4) and in assay [3] (n=5) was more than 90 days throughout. Moreover, the “Survival rate (90 days)” value in assay [1] (untreated allograft 40%) turned out to be 100%. Further, in assay [2], the “week post transplantation after which plasma creatinine increased rapidly” value is reported as 8 week. The compound also had a Survival rate in assay [3] (untreated allograft 40%) of 100%.
